Series [1] has as its target Phosphatidylinositol 4,5-bisphosphate 3-kinase catalytic subunit alpha isoform (Homo sapiens, UniProt P42336). Description: Inhibition of PI3Kalpha.
Series [2] in a line: Antiproliferative activity against human KPL4 cells. Type of series: functional, cell-based.
Series [3] in a line: Half life in human liver microsomes assessed as glucuronidation. Type of series: ADME, Microsome.
Series [4] is described as follows: Half life in human liver microsomes. Type of series: ADME, Microsome.
The nature of series [5]: Oral bioavailability in mouse. Type of series: ADME, organism-based. The settings on record: in vivo.
Series [6] has as its system PC-3. As to the kind of experiment: In vivo antitumor activity against human PC3 cells in xenograft model assessed as inhibition of tumor growth at 100 mg/kg, po qd for 11 days relative to control. The class given is functional. The settings on record: PC-3, 264 h.
In series [7] the test system is PC-3. Description: In vivo antitumor activity against human PC3 cells in xenograft model assessed as inhibition of tumor growth at 25 mg/kg, po qd for 11 days relative to control. The class given is functional. The settings on record: PC-3, 264 h.
In series [8] the target is Phosphatidylinositol 4-phosphate 3-kinase C2 domain-containing subunit alpha (Homo sapiens, UniProt O00443). Description: Inhibition of PI3KC2alpha.
Chain of Phosphatidylinositol 4-phosphate 3-kinase C2 domain-containing subunit alpha (O00443 whole entry, the tested form may be a part): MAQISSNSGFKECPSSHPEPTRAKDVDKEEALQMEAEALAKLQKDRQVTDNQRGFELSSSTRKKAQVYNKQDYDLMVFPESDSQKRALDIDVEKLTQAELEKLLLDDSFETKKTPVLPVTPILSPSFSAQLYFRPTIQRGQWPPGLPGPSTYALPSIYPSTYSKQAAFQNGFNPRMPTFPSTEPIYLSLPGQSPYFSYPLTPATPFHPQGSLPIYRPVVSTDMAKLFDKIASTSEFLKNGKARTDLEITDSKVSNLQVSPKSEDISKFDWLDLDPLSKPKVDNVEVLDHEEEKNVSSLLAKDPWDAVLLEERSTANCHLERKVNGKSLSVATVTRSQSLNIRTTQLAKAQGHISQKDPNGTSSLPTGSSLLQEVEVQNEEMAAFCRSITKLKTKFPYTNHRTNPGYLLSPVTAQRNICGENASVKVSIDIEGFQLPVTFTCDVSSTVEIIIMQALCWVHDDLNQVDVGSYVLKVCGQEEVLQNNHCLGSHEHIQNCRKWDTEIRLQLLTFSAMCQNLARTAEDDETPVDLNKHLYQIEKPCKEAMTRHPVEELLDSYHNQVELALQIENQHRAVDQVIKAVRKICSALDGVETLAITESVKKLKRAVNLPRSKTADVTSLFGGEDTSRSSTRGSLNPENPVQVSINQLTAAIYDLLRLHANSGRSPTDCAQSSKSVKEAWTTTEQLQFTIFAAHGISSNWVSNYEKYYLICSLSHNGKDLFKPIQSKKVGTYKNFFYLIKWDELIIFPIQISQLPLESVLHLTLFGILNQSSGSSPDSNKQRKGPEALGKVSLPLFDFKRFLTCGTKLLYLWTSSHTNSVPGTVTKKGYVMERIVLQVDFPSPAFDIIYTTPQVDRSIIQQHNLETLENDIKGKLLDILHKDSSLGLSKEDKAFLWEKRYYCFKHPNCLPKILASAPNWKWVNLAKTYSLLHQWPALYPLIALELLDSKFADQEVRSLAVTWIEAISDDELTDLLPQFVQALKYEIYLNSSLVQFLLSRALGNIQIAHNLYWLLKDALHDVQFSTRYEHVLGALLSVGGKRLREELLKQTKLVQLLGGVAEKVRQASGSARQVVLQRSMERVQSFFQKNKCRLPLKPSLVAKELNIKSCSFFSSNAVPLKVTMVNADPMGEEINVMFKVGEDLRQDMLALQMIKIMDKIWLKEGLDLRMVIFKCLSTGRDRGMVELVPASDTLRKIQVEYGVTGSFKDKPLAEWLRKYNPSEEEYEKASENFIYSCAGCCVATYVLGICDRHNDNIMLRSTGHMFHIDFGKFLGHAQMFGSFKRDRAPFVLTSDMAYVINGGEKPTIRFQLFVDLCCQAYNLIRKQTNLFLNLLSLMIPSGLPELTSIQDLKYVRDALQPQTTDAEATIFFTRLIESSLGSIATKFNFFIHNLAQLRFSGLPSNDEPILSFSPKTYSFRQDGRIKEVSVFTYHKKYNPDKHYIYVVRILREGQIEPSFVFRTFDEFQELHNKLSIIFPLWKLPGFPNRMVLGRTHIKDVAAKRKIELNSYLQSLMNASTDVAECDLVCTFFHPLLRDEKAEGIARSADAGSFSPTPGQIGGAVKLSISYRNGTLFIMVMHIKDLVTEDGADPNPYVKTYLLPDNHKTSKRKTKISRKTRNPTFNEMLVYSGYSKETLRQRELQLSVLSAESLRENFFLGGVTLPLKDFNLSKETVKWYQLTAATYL
Series [9] deals with Phosphatidylinositol 4-phosphate 3-kinase C2 domain-containing subunit beta (Homo sapiens, UniProt O00750). As to the kind of experiment: Inhibition of PI3KC2beta.
Series [10] has as its target Phosphatidylinositol 3-kinase catalytic subunit type 3 (Homo sapiens, UniProt Q8NEB9). As to the kind of experiment: Inhibition of Vps34.
The target of series [11] is Serine/threonine-protein kinase mTOR (Homo sapiens, UniProt P42345). As to the kind of experiment: Inhibition of mTOR.
Series [12] in a line: Inhibition of protein kinase.
For series [13], the system named is KPL4. As to the kind of experiment: Antitumor activity against human KPL4 cells expressing PI3Kalpha H1047R mutant xenografted in mouse assessed as tumor regression at 12.5 mg/kg, po for 6 weeks. Type of series: functional, organism-based. The arrangement: dose 12.5 mg/kg.
For series [14], the system named is KPL4. As to the kind of experiment: Antitumor activity against human KPL4 cells expressing PI3Kalpha H1047R mutant xenografted in mouse assessed as tumor regression at 12.5 mg/kg, po administered intermittent dosing schedule qd for 2 weeks on/1 week off. Type of series: functional, organism-based. The arrangement: dose 12.5 mg/kg.
In series [15] the test system is KPL4. As to the kind of experiment: Antitumor activity against human KPL4 cells expressing PI3Kalpha H1047R mutant xenografted in mouse assessed as tumor regression at 12.5 mg/kg, po administered intermittent dosing schedule 5 days on/2 days off. The arrangement: dose 12.5 mg/kg. The class given is functional, organism-based.
Series [16] is described as follows: Half life in mouse at 2 mg/kg, iv. The following applies: in vivo. Set-up: dose 2 mg/kg, route intravenous. Type of series: ADME, organism-based.
Series [17] is described as follows: Clearance in mouse at 2 mg/kg, iv. The class given is ADME, organism-based. Set-up: dose 2 mg/kg, route intravenous. The following applies: in vivo.
Series [18] is described as follows: AUC (infinity) in mouse at 2 mg/kg, iv. Type of series: ADME, organism-based. The arrangement: time infinity, dose 2 mg/kg, route intravenous. The following applies: plasma.
Series [19] in a line: Half life in mouse at 1 mg/kg, po. Type of series: ADME, organism-based. Set-up: dose 1 mg/kg, route oral. The settings on record: in vivo.
Series [20] is described as follows: Tmax in mouse at 1 mg/kg, po. The class given is ADME, organism-based. The arrangement: dose 1 mg/kg, route oral. The settings on record: in vivo.
Series [21] is described as follows: AUC (infinity) in mouse at 1 mg/kg, po. The class given is ADME, organism-based. Set-up: time infinity, dose 1 mg/kg, route oral. The following applies: plasma.
The nature of series [22]: Oral bioavailability in mouse at 1 mg/kg. The following applies: in vivo. The class given is ADME, organism-based.
The nature of series [23]: Half life in rat at 0.5 mg/kg, iv. The class given is ADME, organism-based. Set-up: dose 0.5 mg/kg, route intravenous. The following applies: in vivo.
Series [24] is described as follows: Clearance in rat at 0.5 mg/kg, iv. Type of series: ADME, organism-based. The arrangement: dose 0.5 mg/kg, route intravenous. The following applies: in vivo.
The nature of series [25]: AUC (infinity) in rat at 0.5 mg/kg, iv. The settings on record: plasma. The arrangement: dose 0.5 mg/kg, route intravenous, time infinity. The class given is ADME, organism-based.
Series [26] in a line: Half life in rat at 1 mg/kg, po. The settings on record: in vivo. Type of series: ADME, organism-based. The arrangement: dose 1 mg/kg, route oral.
Series [27] can be described thus: Tmax in rat at 1 mg/kg, po. The settings on record: in vivo. The class given is ADME, organism-based. Set-up: dose 1 mg/kg, route oral.
A short description of series [28]: AUC (infinity) in rat at 1 mg/kg, po. Set-up: time infinity, dose 1 mg/kg, route oral. The class given is ADME, organism-based. The following applies: plasma.
Series [29] in a line: Oral bioavailability in rat at 1 mg/kg. The class given is ADME, organism-based. The following applies: in vivo.
A short description of series [30]: Half life in dog at 0.25 mg/kg, iv. Type of series: ADME, organism-based, Canis lupus familiaris. The settings on record: in vivo. The arrangement: dose 0.25 mg/kg, route intravenous.
Series [31] in a line: Clearance in dog at 0.25 mg/kg, iv. The arrangement: dose 0.25 mg/kg, route intravenous. The class given is ADME, organism-based, Canis lupus familiaris. The settings on record: in vivo.
Series [32] in a line: AUC (infinity) in dog at 0.25 mg/kg, iv. Type of series: ADME, organism-based, Canis lupus familiaris. The arrangement: time infinity, dose 0.25 mg/kg, route intravenous. The following applies: plasma.
Series [33] in a line: Half life in dog at 1 mg/kg, po. The class given is ADME, organism-based, Canis lupus familiaris. The following applies: in vivo. Set-up: dose 1 mg/kg, route oral.
Series [34] in a line: Tmax in dog at 1 mg/kg, po. The class given is ADME, organism-based, Canis lupus familiaris. Set-up: dose 1 mg/kg, route oral. The following applies: in vivo.
Series [35] can be described thus: AUC (infinity) in dog at 1 mg/kg, po. The class given is ADME, organism-based, Canis lupus familiaris. The arrangement: time infinity, dose 1 mg/kg, route oral. The following applies: plasma.
Series [36] can be described thus: Oral bioavailability in dog at 1 mg/kg. The class given is ADME, organism-based, Canis lupus familiaris. The following applies: in vivo.
Series [37] in a line: Half life in monkey at 0.25 mg/kg, iv. The class given is ADME, organism-based, Macaca mulatta. The arrangement: dose 0.25 mg/kg, route intravenous. The following applies: rhesus monkey, in vivo.
Series [38] in a line: Clearance in monkey at 0.25 mg/kg, iv. Set-up: dose 0.25 mg/kg, route intravenous. The class given is ADME, organism-based, Macaca mulatta. The following applies: rhesus monkey, in vivo.
The nature of series [39]: Half life in monkey at 1 mg/kg, po. The class given is ADME, organism-based, Macaca mulatta. The arrangement: dose 1 mg/kg, route oral. The settings on record: rhesus monkey, in vivo.
A short description of series [40]: Tmax in monkey at 1 mg/kg, po. The class given is ADME, organism-based, Macaca mulatta. The arrangement: dose 1 mg/kg, route oral. The settings on record: rhesus monkey, in vivo.
Series [41] can be described thus: AUC (infinity) in monkey at 1 mg/kg, po. Type of series: ADME, organism-based, Macaca mulatta. The arrangement: time infinity, dose 1 mg/kg, route oral. The following applies: rhesus monkey, plasma.
The nature of series [42]: Oral bioavailability in monkey at 1 mg/kg. The class given is ADME, organism-based, Macaca mulatta. The following applies: rhesus monkey, in vivo.

The source made the active and inactive calls. No cut-off for these calls is given here. A value given as a limit tells only on which side of the number the result lay.

Chain of Phosphatidylinositol 4,5-bisphosphate 3-kinase catalytic subunit alpha isoform (P42336 whole entry, canonical isoform): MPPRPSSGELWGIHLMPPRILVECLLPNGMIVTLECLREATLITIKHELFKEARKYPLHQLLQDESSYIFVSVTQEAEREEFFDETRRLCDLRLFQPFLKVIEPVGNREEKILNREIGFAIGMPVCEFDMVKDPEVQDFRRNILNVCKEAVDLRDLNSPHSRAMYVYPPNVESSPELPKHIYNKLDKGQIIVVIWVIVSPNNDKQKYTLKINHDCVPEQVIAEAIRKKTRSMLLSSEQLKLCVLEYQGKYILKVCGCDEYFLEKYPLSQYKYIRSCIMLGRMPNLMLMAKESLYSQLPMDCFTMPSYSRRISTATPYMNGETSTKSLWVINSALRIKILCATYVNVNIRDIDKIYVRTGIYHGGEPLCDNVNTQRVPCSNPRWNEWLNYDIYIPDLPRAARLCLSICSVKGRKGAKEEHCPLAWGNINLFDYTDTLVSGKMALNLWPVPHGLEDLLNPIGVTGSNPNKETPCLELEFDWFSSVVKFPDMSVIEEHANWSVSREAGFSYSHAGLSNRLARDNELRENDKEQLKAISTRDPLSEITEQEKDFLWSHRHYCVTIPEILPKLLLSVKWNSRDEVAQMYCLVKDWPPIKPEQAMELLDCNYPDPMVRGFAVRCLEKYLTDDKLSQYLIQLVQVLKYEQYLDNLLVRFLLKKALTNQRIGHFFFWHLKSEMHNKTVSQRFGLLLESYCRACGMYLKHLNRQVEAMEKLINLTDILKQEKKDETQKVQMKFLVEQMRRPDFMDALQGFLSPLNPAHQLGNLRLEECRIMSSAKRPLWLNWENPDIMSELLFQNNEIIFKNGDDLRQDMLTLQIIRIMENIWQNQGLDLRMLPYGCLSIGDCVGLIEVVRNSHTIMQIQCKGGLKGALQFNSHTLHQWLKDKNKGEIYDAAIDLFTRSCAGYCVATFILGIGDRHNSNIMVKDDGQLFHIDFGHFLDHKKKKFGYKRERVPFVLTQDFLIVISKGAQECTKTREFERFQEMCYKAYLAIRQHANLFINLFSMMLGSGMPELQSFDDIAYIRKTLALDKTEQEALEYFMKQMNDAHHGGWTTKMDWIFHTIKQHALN
Chain of Phosphatidylinositol 3-kinase catalytic subunit type 3 (Q8NEB9 whole entry): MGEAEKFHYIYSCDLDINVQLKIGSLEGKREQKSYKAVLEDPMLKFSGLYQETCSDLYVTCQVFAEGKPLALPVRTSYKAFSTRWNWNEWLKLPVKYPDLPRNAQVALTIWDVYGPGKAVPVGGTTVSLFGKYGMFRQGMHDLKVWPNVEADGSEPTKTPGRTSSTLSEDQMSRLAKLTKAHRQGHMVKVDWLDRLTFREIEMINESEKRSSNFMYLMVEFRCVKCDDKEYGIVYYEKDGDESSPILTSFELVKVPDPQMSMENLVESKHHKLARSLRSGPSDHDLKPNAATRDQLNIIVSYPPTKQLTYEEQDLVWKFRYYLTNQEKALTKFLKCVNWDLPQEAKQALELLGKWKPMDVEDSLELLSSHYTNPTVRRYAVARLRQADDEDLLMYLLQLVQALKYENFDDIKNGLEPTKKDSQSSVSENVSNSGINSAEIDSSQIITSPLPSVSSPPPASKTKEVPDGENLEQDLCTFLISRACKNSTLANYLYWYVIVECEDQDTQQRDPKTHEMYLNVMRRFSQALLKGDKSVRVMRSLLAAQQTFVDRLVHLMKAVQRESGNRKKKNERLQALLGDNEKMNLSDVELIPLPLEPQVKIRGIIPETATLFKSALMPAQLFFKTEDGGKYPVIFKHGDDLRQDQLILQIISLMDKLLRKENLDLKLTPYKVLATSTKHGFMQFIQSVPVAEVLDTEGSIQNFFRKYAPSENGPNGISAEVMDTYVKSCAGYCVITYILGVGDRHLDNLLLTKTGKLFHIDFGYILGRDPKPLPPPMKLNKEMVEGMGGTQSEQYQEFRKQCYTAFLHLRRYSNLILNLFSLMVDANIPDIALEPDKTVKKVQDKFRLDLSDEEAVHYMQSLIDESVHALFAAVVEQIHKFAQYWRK

On to `Nc1ncc(-c2nc(N3CCOCC3)nc3c2CCN3c2cccnc2)cn1`, for which the results for the IC50 in [1] and in series [2] were 33 nM and 15 nM, respectively. In addition, the half-life in series [3] is > 1 h; in series [4], 1.18 h. The bioavailability in series [5] turned out to be 41%. In addition, in the series with PC-3 [6], the inhibition in vivo at 100 mg/kg was 112%.

As for `Oc1cccc(-c2nc(N3CCOCC3)nc3c2CCN3c2ccncc2)c1`, the values for the IC50 in series [1] and in series [2] were 8.6 nM and 450 nM, respectively. The half-life worked out at 0.183 h in series [3] and 0.35 h in series [4]. Moreover, in series [5], the bioavailability turned out to be 1.6%.

Take `Oc1cccc(-c2nc(N3CCOCC3)nc3c2CCN3c2cccnc2)c1`: in series [1], the IC50 was 41 nM.

`CS(=O)(=O)N1CCc2c(-c3cnc(N)nc3)nc(N3CCOCC3)nc21` [IZORLISIB]: the half-life is > 6 h in series [4]; 1.7 h in series [16]; 3.8 h in series [19]; 2.6 h in [23]; 3.5 h in series [26]; 1.6 h in series [30]. The half-life is 3.3 h in series [33], 3.2 h in series [37] and 6.7 h in [39]. Moreover, the bioavailability in series [5] amounted to 101%; in series [22], 101%; in [29] it was 66.2%; in series [36] it was 54.2%; in [42], 78.4%. The inhibition in vivo at 25 mg/kg in the series on PC-3 [7] was found to be 101%. The IC50 in series [8] was > 10000 nM; in series [9], 5300 nM; in series [10] it was > 10000 nM; in [11], 1600 nM; in series [12], > 10000 nM. In addition, the result in the series with KPL4 [13], in the series with KPL4 [14] and with KPL4 [15] was Active. Moreover, the clearance was found to be 17.5 mL/min/kg in [17], 6.3 mL/min/kg in [24], 6.4 mL/min/kg in [31] and 6.2 mL/min/kg in series [38]. Also, the AUC(0-inf) in series [18] is 1930 ng·h/mL; in series [21], 978 ng·h/mL; in series [25] it was 1350 ng·h/mL; in series [28] it was 1790 ng·h/mL; in series [32], 660 ng·h/mL; in [35] it was 1430 ng·h/mL. Also, the AUC(0-inf) in series [41] was found to be 2170 ng·h/mL. In addition, the Tmax in series [20] is 0.25 h; in [27], 0.8 h; in [34], 4.5 h; in [40], 4 h.

`Oc1cccc(-c2nc(N3CCOCC3)nc3c2CCN3c2ccc3nc[nH]c3c2)c1` registered an IC50 in [1] of 77 nM.
